Laboratory results taken from ChEMBL document CHEMBL5465560, “Selectivity Literature for EUbOPEN Chemogenomic Library” (2024).

Legend:
[1] = molecular target: T1, Ephrin type-B receptor 2 (Homo sapiens) (UniProt P29323); conditions: at 10 µM
T1 sequence (whole entry): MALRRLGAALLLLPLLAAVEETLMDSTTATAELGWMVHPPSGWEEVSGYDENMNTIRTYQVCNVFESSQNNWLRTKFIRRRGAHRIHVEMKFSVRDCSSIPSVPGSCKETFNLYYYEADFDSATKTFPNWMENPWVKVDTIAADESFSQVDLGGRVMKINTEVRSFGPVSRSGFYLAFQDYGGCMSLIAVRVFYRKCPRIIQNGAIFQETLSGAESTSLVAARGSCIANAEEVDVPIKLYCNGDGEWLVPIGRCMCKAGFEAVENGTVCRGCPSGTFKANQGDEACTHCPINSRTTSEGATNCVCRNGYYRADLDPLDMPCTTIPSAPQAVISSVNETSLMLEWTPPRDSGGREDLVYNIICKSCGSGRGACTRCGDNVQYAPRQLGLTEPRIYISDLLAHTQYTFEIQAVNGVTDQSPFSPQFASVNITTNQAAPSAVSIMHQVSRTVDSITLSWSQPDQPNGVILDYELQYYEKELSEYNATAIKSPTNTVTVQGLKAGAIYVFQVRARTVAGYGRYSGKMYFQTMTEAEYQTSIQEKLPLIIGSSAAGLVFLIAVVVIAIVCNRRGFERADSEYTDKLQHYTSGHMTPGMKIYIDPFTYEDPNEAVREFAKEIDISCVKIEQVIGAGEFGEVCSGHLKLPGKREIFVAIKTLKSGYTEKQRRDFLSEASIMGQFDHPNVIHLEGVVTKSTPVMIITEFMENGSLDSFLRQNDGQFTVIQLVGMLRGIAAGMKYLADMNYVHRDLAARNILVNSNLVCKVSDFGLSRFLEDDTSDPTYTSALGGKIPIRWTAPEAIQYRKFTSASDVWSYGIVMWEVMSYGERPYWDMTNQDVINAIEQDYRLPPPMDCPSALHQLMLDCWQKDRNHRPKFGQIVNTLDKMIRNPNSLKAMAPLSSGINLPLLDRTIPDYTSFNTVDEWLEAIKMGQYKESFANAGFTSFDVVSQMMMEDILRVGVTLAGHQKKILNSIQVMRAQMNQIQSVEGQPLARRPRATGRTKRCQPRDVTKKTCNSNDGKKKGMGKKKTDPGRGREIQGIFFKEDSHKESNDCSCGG

[2] = molecular target: Mitogen-activated protein kinase 6 (Homo sapiens) (UniProt Q16659); assay: Selectivity interaction (KinomeScan (DiscoverX)) EUB0000092b MAPK6; conditions: at 10 µM
[3] = molecular target: Dual specificity tyrosine-phosphorylation-regulated kinase 1A (Homo sapiens, UniProt Q13627); assay: Selectivity interaction (Kinase panel (DSF assay)) EUB0001559a DYRK1A
[4] = molecular target: Platelet-derived growth factor receptor alpha (Homo sapiens, UniProt P16234); conditions: at 10 µM
Ephrin type-A receptor 4 = Ephrin type-A receptor 4 (Homo sapiens, UniProt P54764); assay: Selectivity interaction (Kinase panel (Z-LYTE Assay)) EUB0001632a EPHA4; conditions: at 10 µM
[5] = molecular target: Mitogen-activated protein kinase 8 (Homo sapiens, UniProt P45983); assay: Selectivity interaction (Kinase panel (Invitrogen)) EUB0000639a MAPK8; conditions: at 200 nM
[6] = molecular target: Dual specificity protein kinase CLK1 (Homo sapiens, UniProt P49759); assay: Selectivity interaction (KinomeScan (DiscoverX)) EUB0000607a CLK1; conditions: at 10 µM
[7] = molecular target: 5'-AMP-activated protein kinase catalytic subunit alpha-1 (Homo sapiens, UniProt Q13131); assay: Selectivity interaction (KinomeScan (DiscoverX)) EUB0000595a PRKAA1; conditions: at 10 µM
[8] = molecular target: Calcium/calmodulin-dependent protein kinase kinase 1 (Homo sapiens) (UniProt Q8N5S9); assay: Selectivity interaction (KinomeScan (DiscoverX)) EUB0000595a CAMKK1; conditions: at 10 µM
[9] = molecular target: LIM domain kinase 2 (Homo sapiens) (UniProt P53671); assay: Selectivity interaction (KinomeScan (DiscoverX)) EUB0000618a LIMK2; conditions: at 10 µM
[10] = molecular target: T2, Dual specificity tyrosine-phosphorylation-regulated kinase 2 (Homo sapiens) (UniProt Q92630); assay: Selectivity interaction (KinomeScan (DiscoverX)) EUB0000618a DYRK2; conditions: at 10 µM
T2 sequence (whole entry): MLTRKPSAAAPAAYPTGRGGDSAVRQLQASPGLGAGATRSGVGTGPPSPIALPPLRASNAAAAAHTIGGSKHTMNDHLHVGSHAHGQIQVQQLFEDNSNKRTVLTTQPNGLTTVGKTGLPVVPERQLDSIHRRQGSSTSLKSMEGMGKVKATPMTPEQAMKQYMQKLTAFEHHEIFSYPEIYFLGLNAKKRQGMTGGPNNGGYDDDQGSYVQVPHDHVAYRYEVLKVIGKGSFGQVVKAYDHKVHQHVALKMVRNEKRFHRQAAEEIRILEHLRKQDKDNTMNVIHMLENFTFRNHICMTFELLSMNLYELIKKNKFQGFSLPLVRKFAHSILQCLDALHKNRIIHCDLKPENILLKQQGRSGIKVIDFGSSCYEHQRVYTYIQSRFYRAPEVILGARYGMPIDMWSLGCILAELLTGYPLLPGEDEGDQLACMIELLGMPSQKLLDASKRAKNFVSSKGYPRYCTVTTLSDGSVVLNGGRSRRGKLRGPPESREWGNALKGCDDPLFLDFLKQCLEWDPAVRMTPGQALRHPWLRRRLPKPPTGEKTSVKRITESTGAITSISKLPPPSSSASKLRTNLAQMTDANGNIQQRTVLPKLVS

[11] = molecular target: T3, Rhodopsin kinase GRK1 (Homo sapiens) (UniProt Q15835); assay: Selectivity interaction (Ambit KINOMEscan and KiNATiv profiling in Jurkat cells) EUB0000090b GRK1; assay type: cell-based; conditions: at 1 µM
T3 sequence (whole entry): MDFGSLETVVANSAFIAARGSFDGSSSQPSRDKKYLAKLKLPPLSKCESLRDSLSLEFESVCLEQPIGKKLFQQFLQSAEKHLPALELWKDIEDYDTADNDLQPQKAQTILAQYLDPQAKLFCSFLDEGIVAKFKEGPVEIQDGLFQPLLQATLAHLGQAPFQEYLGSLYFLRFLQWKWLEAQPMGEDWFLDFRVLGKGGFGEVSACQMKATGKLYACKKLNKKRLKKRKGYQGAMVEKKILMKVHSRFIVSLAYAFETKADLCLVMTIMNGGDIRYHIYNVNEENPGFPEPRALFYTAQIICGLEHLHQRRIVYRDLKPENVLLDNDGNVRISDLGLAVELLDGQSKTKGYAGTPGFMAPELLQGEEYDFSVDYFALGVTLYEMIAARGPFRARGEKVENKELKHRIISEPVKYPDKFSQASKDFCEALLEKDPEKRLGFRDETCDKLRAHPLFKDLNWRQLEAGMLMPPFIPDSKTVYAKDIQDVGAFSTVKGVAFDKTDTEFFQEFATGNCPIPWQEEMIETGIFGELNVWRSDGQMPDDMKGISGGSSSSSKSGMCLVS

Dual specificity protein kinase CLK1, sequence (P49759 whole entry, looked up): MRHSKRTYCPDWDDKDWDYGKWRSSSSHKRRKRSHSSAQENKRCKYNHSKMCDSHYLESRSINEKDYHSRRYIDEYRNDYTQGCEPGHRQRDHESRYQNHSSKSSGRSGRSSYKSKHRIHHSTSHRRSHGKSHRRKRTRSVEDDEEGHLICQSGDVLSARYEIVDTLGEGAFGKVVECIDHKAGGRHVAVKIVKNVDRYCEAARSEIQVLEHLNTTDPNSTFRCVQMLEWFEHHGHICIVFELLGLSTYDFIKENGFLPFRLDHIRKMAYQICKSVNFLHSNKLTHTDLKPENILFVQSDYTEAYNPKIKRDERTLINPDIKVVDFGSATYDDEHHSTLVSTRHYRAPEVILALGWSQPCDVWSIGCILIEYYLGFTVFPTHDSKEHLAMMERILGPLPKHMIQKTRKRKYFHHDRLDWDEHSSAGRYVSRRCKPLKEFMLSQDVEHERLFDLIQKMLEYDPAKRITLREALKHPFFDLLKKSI
Platelet-derived growth factor receptor alpha, sequence (P16234 whole entry): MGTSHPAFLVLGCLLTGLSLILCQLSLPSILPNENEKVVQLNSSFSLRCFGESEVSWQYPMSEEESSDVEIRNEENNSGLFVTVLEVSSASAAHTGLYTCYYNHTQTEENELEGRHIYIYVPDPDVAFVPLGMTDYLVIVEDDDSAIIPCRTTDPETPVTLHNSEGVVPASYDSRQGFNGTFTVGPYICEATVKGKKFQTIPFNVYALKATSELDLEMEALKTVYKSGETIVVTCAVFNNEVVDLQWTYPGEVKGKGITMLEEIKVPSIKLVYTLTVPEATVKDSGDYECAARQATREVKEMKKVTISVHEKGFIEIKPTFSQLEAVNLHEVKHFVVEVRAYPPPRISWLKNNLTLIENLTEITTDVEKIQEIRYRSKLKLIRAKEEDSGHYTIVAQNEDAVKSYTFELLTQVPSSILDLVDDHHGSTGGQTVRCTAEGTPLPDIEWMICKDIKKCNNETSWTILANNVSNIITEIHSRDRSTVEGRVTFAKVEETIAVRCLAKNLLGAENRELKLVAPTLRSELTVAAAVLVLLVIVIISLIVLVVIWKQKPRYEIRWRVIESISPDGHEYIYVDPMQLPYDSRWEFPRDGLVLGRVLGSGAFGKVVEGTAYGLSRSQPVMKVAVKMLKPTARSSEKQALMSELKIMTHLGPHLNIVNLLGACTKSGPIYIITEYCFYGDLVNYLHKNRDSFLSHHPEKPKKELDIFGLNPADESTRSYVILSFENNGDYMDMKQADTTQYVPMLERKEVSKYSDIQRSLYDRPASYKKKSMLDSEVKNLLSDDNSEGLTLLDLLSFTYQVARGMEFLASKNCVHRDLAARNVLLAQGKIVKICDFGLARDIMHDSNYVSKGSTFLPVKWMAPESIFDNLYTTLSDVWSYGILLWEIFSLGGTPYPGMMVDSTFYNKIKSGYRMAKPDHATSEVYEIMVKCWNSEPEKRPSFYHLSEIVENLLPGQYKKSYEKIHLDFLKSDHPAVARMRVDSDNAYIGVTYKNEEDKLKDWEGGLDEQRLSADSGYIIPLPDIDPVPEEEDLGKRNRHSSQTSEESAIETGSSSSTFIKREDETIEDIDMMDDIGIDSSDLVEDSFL
Ephrin type-A receptor 4, sequence (P54764 whole entry): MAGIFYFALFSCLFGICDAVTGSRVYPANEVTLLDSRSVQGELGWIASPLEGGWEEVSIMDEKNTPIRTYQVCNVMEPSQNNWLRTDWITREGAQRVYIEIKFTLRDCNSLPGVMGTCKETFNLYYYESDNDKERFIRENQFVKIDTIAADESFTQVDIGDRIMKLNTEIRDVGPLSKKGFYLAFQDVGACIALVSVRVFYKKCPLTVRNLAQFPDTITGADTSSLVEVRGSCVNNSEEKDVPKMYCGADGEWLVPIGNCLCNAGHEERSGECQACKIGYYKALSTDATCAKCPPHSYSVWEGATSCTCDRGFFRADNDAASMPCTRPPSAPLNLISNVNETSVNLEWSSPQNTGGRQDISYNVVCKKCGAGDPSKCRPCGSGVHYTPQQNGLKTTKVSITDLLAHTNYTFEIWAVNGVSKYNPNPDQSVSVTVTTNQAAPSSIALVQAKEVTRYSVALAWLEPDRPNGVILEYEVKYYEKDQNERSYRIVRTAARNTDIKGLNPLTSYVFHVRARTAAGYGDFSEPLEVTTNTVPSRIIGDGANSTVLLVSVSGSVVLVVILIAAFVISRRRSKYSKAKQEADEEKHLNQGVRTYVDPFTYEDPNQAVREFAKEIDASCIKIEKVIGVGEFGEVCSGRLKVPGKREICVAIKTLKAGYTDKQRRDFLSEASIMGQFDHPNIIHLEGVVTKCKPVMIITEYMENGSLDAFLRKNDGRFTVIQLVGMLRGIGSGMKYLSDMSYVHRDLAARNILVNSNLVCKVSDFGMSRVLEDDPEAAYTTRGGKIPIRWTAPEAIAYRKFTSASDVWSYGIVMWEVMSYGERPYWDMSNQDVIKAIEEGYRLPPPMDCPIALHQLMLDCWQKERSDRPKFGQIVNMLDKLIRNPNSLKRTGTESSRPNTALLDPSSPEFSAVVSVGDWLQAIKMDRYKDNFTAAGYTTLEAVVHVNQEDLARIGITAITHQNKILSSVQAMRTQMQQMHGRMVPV
LIM domain kinase 2 (Homo sapiens), sequence (P53671 whole entry, looked up, the tested form may be a part): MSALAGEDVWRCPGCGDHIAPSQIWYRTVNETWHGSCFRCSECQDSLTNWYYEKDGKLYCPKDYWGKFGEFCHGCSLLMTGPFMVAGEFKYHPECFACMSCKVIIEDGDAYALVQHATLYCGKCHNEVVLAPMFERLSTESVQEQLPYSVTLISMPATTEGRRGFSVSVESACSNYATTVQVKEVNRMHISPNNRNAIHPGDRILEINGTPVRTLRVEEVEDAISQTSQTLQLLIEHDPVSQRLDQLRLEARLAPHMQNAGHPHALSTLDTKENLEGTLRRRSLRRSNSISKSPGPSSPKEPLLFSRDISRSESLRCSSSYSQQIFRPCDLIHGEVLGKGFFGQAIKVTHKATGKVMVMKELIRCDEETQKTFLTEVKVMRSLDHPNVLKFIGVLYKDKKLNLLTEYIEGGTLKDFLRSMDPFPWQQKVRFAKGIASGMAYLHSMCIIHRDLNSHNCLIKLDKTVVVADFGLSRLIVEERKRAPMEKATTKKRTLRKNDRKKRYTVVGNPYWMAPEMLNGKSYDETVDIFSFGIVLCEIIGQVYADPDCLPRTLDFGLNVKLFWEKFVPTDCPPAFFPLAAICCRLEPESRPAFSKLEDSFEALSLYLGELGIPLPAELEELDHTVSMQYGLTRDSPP
5'-AMP-activated protein kinase catalytic subunit alpha-1, sequence (Q13131 whole entry, looked up): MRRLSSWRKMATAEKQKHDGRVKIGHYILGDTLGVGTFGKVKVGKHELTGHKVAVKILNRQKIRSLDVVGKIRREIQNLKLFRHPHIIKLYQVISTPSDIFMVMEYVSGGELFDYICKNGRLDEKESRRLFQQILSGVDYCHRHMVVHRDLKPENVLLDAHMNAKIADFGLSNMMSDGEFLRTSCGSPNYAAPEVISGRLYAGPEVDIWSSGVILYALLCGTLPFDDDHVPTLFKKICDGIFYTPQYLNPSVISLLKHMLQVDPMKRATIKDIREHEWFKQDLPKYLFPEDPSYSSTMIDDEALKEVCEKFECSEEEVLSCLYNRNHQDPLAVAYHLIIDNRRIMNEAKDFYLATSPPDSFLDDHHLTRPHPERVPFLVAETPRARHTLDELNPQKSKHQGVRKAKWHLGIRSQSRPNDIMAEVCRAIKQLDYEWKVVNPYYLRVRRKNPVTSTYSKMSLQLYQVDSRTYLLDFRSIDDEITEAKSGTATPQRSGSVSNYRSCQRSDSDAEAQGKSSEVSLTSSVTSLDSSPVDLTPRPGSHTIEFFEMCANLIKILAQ
Calcium/calmodulin-dependent protein kinase kinase 1 (Homo sapiens), sequence (Q8N5S9 whole entry, looked up, the tested form may be a part): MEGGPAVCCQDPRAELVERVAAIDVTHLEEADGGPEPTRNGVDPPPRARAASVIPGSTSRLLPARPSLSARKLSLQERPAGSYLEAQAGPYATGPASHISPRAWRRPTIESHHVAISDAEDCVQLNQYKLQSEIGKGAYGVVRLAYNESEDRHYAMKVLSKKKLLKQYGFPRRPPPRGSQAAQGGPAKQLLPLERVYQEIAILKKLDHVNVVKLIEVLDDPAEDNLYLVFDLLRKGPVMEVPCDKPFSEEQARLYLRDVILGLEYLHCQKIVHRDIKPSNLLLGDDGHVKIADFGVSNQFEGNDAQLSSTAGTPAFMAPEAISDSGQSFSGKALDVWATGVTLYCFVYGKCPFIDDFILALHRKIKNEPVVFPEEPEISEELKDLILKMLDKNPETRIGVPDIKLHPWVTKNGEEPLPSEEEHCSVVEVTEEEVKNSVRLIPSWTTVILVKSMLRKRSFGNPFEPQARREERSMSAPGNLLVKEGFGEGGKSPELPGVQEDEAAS
Mitogen-activated protein kinase 6 (Homo sapiens), sequence (Q16659 whole entry): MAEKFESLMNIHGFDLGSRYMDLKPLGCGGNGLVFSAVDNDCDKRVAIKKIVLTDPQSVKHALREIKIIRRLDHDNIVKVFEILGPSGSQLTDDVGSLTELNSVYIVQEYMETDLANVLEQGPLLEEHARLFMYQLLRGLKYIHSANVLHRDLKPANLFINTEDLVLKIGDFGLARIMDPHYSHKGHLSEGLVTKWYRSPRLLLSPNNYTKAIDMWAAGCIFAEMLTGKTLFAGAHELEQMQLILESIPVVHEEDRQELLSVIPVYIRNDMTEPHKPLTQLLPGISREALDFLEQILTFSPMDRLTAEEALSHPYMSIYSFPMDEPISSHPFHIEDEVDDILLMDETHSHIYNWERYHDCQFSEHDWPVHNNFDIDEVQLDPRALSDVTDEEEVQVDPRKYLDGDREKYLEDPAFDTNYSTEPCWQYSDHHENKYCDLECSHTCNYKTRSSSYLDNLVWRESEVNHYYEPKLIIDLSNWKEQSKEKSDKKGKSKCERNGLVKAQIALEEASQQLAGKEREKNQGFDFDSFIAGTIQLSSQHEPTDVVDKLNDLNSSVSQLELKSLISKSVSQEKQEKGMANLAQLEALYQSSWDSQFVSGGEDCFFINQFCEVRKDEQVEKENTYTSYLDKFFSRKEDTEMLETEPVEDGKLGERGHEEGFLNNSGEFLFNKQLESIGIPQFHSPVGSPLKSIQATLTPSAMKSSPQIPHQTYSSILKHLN

SMILES: CCN(CC)CCCCNc1ncc2cc(-c3cc(OC)cc(OC)c3)c(NC(=O)NC(C)(C)C)nc2n1
- % of control [1]: 100%

SMILES: CCC(=O)N1CCN(c2ccc(-n3c(=O)ccc4cnc5ccc(-c6cnc7ccccc7c6)cc5c43)cc2C(F)(F)F)CC1
- % of control [2]: 1.8%

SMILES: CN(C(=O)c1cnn2cccnc12)c1cc2c(cc1N1CCOCC1)C(=O)N(C[C@@H](F)C(C)(C)O)C2
- dTM [3]: -0.3 K

SMILES: Cc1cc([C@@H](C)Nc2ccccc2C(=O)O)c2nc(N3CCOCC3)cc(=O)n2c1 [AZD-6482]
- % of control [4]: 84%

SMILES: Cn1cc(-n2cnc3c(NCc4nc5cc(Cl)c(Cl)cc5[nH]4)nc(N4CCOCC4)nc32)cn1
- % of control (Ephrin type-A receptor 4): -5.33%

SMILES: CC[C@@H]1[C@H](F)C(=O)N[C@@H]1COc1nccc2cc(C(N)=O)c(OC)cc12 [ZIMLOVISERTIB]
- % of inhibition [5]: 6.17%

SMILES: CNC(=O)Nc1ccc(-c2nc(N3CC4CCC(C3)O4)c3cnn(C4CCC5(CC4)OCCO5)c3n2)cc1
- % of control [6]: 29%

SMILES: COCC(=O)NC/C=C/c1ccc2ncnc(Nc3ccc(Oc4ccc(C)nc4)c(C)c3)c2c1 [CP-724714]
- % of control [7]: 89%
- % of control [8]: 96%

SMILES: O[C@H]1CC[C@H](Nc2ncc3nc(Nc4c(F)cc(F)cc4F)n([C@H]4CCOC4)c3n2)CC1
- % of control [9]: 29%
- % of control [10]: 100%

SMILES: CN(C)C/C=C/C(=O)Nc1ccc(C(=O)N2CCCC(Nc3ncc(Cl)c(-c4c[nH]c5ccccc45)n3)C2)cc1 (configuration not stated)
- % of control [11]: 57%
